ChEMBL document CHEMBL1139683, “Pyridone derivatives as potent, orally bioavailable VLA-4 integrin antagonists” (Bioorg Med Chem Lett, 2006)

What was measured:
Integrin alpha-4/beta-1 = Integrin alpha-4/beta-1 (Homo sapiens, UniProt P05556+P13612); assay: Inhibition of integrin alpha-4-beta-1 receptor expressed in Jurkat J6 cells by SPA; assay type: cell-based
Rattus norvegicus = organism: Rattus norvegicus; assay: Dose normalised AUC (0-8 hrs) in rat; assay type: ADME, organism-based; design: time < 8 hr; details: in vivo
[1] = Volume of distribution of steady state in rat; assay type: ADME, organism-based; details: in vivo, read-out: Vss
[2] = Half life in rat; assay type: ADME, organism-based; details: in vivo
[3] = Clearance in iv dosed rat; assay type: ADME, organism-based; details: in vivo
[4] = Bioavailability in Sprague-Dawley rat at 1 mg/kg, iv and 3 mg/kg, po; assay type: ADME, organism-based; details: in vivo

Sequence of Integrin alpha-4/beta-1 (P05556 whole entry): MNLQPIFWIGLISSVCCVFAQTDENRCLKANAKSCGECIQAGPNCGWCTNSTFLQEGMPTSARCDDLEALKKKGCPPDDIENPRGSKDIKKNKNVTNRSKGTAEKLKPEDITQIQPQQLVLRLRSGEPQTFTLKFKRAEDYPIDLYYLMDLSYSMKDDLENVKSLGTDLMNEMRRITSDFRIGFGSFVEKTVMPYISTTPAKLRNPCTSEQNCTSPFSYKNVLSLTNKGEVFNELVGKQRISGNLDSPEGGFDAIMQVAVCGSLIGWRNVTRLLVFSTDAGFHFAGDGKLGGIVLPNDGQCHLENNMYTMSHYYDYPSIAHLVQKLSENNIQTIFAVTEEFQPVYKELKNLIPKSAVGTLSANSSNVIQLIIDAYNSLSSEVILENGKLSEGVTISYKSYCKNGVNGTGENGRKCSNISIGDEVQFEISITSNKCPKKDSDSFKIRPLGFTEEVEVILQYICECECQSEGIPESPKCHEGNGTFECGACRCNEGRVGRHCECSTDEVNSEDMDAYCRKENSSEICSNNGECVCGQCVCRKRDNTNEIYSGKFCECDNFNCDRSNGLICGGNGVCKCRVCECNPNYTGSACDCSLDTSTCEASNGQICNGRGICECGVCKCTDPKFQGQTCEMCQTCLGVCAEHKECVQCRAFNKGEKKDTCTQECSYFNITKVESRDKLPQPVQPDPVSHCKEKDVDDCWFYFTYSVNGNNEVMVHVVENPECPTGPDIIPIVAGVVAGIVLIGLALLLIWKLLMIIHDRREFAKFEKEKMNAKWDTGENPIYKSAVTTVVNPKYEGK
Sequence of Integrin alpha-4/beta-1 (P13612 whole entry): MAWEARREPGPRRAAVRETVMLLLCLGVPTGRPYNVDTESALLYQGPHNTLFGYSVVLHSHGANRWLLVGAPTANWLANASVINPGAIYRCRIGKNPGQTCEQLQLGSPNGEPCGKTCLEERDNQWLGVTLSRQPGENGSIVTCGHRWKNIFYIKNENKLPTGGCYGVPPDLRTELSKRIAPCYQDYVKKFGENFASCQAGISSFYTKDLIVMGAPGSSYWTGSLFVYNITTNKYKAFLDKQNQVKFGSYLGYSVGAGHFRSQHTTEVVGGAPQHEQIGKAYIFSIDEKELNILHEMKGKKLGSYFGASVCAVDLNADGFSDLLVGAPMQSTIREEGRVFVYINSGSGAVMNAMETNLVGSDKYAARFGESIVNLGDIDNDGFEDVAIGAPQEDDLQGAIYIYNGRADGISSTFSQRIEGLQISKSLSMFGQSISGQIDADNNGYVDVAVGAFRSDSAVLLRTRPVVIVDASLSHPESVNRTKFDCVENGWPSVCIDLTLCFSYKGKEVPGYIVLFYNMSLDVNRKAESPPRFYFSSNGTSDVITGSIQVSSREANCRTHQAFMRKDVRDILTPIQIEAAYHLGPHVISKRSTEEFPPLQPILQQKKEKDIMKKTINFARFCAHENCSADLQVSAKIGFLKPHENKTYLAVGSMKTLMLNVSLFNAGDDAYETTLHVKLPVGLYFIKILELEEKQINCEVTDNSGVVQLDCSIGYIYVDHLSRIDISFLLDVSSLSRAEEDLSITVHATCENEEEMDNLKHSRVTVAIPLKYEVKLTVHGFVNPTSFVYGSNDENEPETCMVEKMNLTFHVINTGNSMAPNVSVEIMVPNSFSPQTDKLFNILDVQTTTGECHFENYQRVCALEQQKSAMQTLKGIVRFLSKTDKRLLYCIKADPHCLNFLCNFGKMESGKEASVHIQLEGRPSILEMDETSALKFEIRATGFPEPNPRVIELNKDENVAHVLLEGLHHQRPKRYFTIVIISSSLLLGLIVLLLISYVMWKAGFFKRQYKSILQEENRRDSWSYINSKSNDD

SMILES | Ki (Integrin alpha-4/beta-1) | further results
Cc1ccccc1NC(=O)Nc1ccc(-c2cccn(Cc3ccc([C@@H](C)CC(=O)O)cc3)c2=O)cc1C | 20 nM | 
COc1ccccc1NC(=O)Nc1ccc(-c2cccn(Cc3ccc(CCC(=O)O)cc3)c2=O)cc1OC | 6.31 nM | 
COc1cc(-c2cccn(Cc3ccc(CCC(=O)O)cc3)c2=O)ccc1NC(=O)Nc1cc(C)ccc1C | 7.94 nM | 
Cc1ccccc1NC(=O)Nc1ccc(-c2cccn(Cc3ccc([C@H](C)CC(=O)O)cc3)c2=O)cc1C | 2.51 nM | 
Cc1ccccc1NC(=O)Nc1ccc(-c2cccn(Cc3ccc([C@H](C)CC(=O)O)cc3)c2=O)c(Cl)c1 | 1 nM | 
Cc1ccccc1NC(=O)Nc1ccc(-c2cccn(Cc3ccc([C@H](C)CC(=O)O)cc3)c2=O)cc1Cl | 0.794 nM | 
COc1cc(-c2cccn(Cc3ccc(CCC(=O)O)cc3)c2=O)ccc1NC(=O)Nc1ccccc1NC(C)=O | 6.31 nM | 
Cc1ccccc1NC(=O)Nc1ccc(-c2cccn(Cc3ccc([C@@H](C)CC(=O)O)cc3)c2=O)c(OC(F)(F)F)c1 | 20 nM | 
Cc1ccccc1NC(=O)Nc1ccc(-c2cccn(Cc3ccc([C@H](C)CC(=O)O)cc3)c2=O)cc1 | 1 nM | AUC (Rattus norvegicus): 14 kg·min/L; Vd [1]: 0.6 L/kg; half-life [2]: 1.3 h; clearance [3]: 16 mL/min/kg; bioavailability [4]: 22%
COc1cc(-c2cccn(Cc3ccc([C@H](C)CC(=O)O)cc3)c2=O)ccc1NC(=O)Nc1ccccc1C | 0.794 nM | AUC (Rattus norvegicus): 154 kg·min/L; Vd [1]: 0.6 L/kg; half-life [2]: 1.4 h; clearance [3]: 9 mL/min/kg; bioavailability [4]: 121%
COc1cc(-c2cccn(Cc3ccc(CCC(=O)O)cc3)c2=O)ccc1NC(=O)Nc1ccc(C)cc1C | 25.1 nM | 
COc1cc(-c2cccn(Cc3ccc(CCC(=O)O)cc3)c2=O)ccc1NC(=O)Nc1ccccc1 | 1.58 nM | 
CCc1cc(NC(=O)Nc2ccccc2C)ccc1-c1cccn(Cc2ccc([C@H](C)CC(=O)O)cc2)c1=O | 6.31 nM | 
Cc1ccccc1NC(=O)Nc1ccc(-c2cccn(Cc3ccc([C@@H](C)CC(=O)O)cc3)c2=O)c(C)c1 | 2.51 nM | 
COc1cc(-c2cccn(Cc3ccc(CCC(=O)O)cc3)c2=O)ccc1NC(=O)Nc1ccccc1C(C)C | 316 nM | 
Cc1ccccc1NC(=O)Nc1ccc(-c2cccn(Cc3ccc([C@@H](C)CC(=O)O)cc3)c2=O)cc1Cl | 25.1 nM | 
COc1cc(-c2cccn(Cc3ccc(CCC(=O)O)cc3)c2=O)ccc1NC(=O)Nc1c(C)cccc1C | 2 nM | 
COc1cc(-c2cccn(Cc3ccc(CCC(=O)O)cc3)c2=O)ccc1NC(=O)Nc1cccc(C)c1C | 25.1 nM | 
COc1cc(-c2cccn(Cc3ccc(CCC(=O)O)cc3)c2=O)ccc1NC(=O)Nc1ccccc1Br | 5.01 nM | 
Cc1ccccc1NC(=O)Nc1ccc(-c2cccn(Cc3ccc([C@H](C)CC(=O)O)cc3)c2=O)c(C)c1 | 1 nM | 
COc1cc(-c2cccn(Cc3ccc([C@@H](C)CC(=O)O)cc3)c2=O)ccc1NC(=O)Nc1ccccc1C | 1 nM | 
CCOc1cc(NC(=O)Nc2ccccc2C)ccc1-c1cccn(Cc2ccc([C@@H](C)CC(=O)O)cc2)c1=O | 5.01 nM | 
Cc1ccccc1NC(=O)Nc1ccc(-c2cccn(Cc3ccc([C@@H](C)CC(=O)O)cc3)c2=O)c(Cl)c1 | 2 nM | 
Cc1ccccc1NC(=O)Nc1ccc(-c2cccn(Cc3ccc(CCC(=O)O)cc3)c2=O)cc1 | 2.51 nM | AUC (Rattus norvegicus): 3 kg·min/L
COc1cc(-c2cccn(Cc3ccc(CCC(=O)O)cc3)c2=O)ccc1NC(=O)Nc1ccccc1C |  | AUC (Rattus norvegicus): 6 kg·min/L
CCc1cc(NC(=O)Nc2ccccc2C)ccc1-c1cccn(Cc2ccc([C@@H](C)CC(=O)O)cc2)c1=O | 50.1 nM | 
CCOc1cc(NC(=O)Nc2ccccc2C)ccc1-c1cccn(Cc2ccc([C@H](C)CC(=O)O)cc2)c1=O | 2 nM | 
Cc1ccccc1NC(=O)Nc1ccc(-c2cccn(Cc3ccc([C@H](C)CC(=O)O)cc3)c2=O)c(OC(F)(F)F)c1 | 3.98 nM | 
Cc1ccccc1NC(=O)Nc1ccc(-c2cccn(Cc3ccc([C@@H](C)CC(=O)O)cc3)c2=O)cc1 | 2.51 nM | 
